Measured values from patent publication US20210254272A1, “TEXTILES HAVING ANTIMICROBIAL PROPERTIES” (Livinguard AG, priority 2015, published 2021).

Test: Leaching test: 100 g fabric soaked in 10 liters stagnant distilled water, 3 days (72 hours)
Format: physicochemical
Settings: for Leaching of active ingredients / Leaching Test-Leaching of active ingredients: pad process; for Leaching of active ingredients: cured 180° C. 2 min; for Leaching Test-Leaching of active ingredients: 2 min
Procedure: (§1) The test procedure for leaching was as follows: 100 g (grams) of fabric as well as control fabrics were soaked in 10 liters of stagnant distilled water in a closed wide mouth jar. After 3 days (72 hours), the water samples were tested for leached substances as per standard analytical methods.
as §1, with “methods. A weight of 100 g fabric was chosen because in the preferred embodiment of the water filter as described further below, each filter comprises a strip of fabric with 210 g/m^2, 3 meters long and 0.16 meters wide, which corresponds to 100 g of fabric.” for “methods.”

## Silver
Exhaust 80° C., 60 min, dosage 1% o.w.f (test up to 5% o.w.f)
  Leaching of active ingredients (in ppm): 3.5 ppm
Exhaust 80° C., 60 min, dosage 2% o.w.f
  Leaching of active ingredients (in ppm): 19 ppm
Exhaust 80° C., 60 min, dosage 3% o.w.f
  Leaching of active ingredients (in ppm): 36 ppm
Exhaust 80° C., 60 min, dosage 4% o.w.f
  Leaching of active ingredients (in ppm): 41 ppm
Exhaust 80° C., 60 min, dosage 5% o.w.f
  Leaching of active ingredients (in ppm): 69 ppm
Exhaust 80 ° C., solution dosage 1% o.w.f, process time 10 min
  Leaching of active ingredients (in ppm): 50 ppm
Exhaust 80 ° C., solution dosage 1% o.w.f, process time 20 min
  Leaching of active ingredients (in ppm): 37 ppm
Exhaust 80 ° C., solution dosage 1% o.w.f, process time 30 min
  Leaching of active ingredients (in ppm): 28 ppm
Exhaust 80 ° C., solution dosage 1% o.w.f, process time 40 min
  Leaching of active ingredients (in ppm): 22 ppm
Exhaust 80 ° C., solution dosage 1% o.w.f, process time 50 min
  Leaching of active ingredients (in ppm): 19 ppm
Exhaust 80 ° C., solution dosage 1% o.w.f, process time 55 min
  Leaching of active ingredients (in ppm): 8 ppm
Exhaust 80 ° C., solution dosage 1% o.w.f, process time 60 min
  Leaching of active ingredients (in ppm): 4 ppm
Exhaust 80 ° C., solution dosage 1% o.w.f, process time 70 min
  Leaching of active ingredients (in ppm): 4 ppm
Exhaust 80 ° C., solution dosage 1% o.w.f, process time 80 min
  Leaching of active ingredients (in ppm): 3 ppm
Exhaust 80 ° C., solution dosage 1% o.w.f, process time 90 min
  Leaching of active ingredients (in ppm): 8 ppm
From Experimental examples I.1 and I.4
  limit on the quantity of the agent that can be adhered to the textile in a non-leaching or substantially non-leaching manner: about 0.01 % o.w.f.
Mixture 1 gm/lit each
  Leaching of active ingredients: 12 ppm
Mixture 1 gm/lit each, after Washing
  Leaching of active ingredients: 0.4 ppm
Mixture 5 gm/lit each
  Leaching of active ingredients: 28 ppm
Mixture 5 gm/lit each, after Washing
  Leaching of active ingredients: 0.6 ppm
Mixture 10 gm/lit each
  Leaching of active ingredients: 38 ppm
Mixture 10 gm/lit each, after Washing
  Leaching of active ingredients: 1.0 ppm
Single agent 5 gm/lit, curing 120° C.
  Leaching Test-Leaching of active ingredients: 9 ppm
Single agent 5 gm/lit, curing 140° C.
  Leaching Test-Leaching of active ingredients: 5 ppm
Single agent 5 gm/lit, curing 150° C.
  Leaching Test-Leaching of active ingredients: 3 ppm
Single agent 5 gm/lit, curing 160° C.
  Leaching Test-Leaching of active ingredients: 2 ppm
Single agent 5 gm/lit, curing 180° C.
  Leaching Test-Leaching of active ingredients: 1 ppm
Single agent 10 gm/lit, curing 120° C.
  Leaching Test-Leaching of active ingredients: 16 ppm
Single agent 10 gm/lit, curing 140° C.
  Leaching Test-Leaching of active ingredients: 15 ppm
Single agent 10 gm/lit, curing 150° C.
  Leaching Test-Leaching of active ingredients: 12 ppm
Single agent 10 gm/lit, curing 160° C.
  Leaching Test-Leaching of active ingredients: 9 ppm
Single agent 10 gm/lit, curing 180° C.
  Leaching Test-Leaching of active ingredients: 2 ppm
Solution dosage 0.10% o.w.f, exhaust temperature 40° C., process time 60 min
  Leaching of active ingredient (in ppm): 0 ppm
Solution dosage 0.10% o.w.f, exhaust temperature 60° C., process time 60 min
  Leaching of active ingredient (in ppm): 0 ppm
Solution dosage 0.10% o.w.f, exhaust temperature 65° C., process time 60 min
  Leaching of active ingredient (in ppm): 0 ppm
Solution dosage 0.10% o.w.f, exhaust temperature 70° C., process time 60 min
  Leaching of active ingredient (in ppm): 0 ppm
Solution dosage 0.10% o.w.f, exhaust temperature 75° C., process time 60 min
  Leaching of active ingredient (in ppm): 0 ppm
Solution dosage 0.10% o.w.f, exhaust temperature 80° C., process time 60 min
  Leaching of active ingredient (in ppm): 0 ppm
Solution dosage 0.10% o.w.f, exhaust temperature 85° C., process time 60 min
  Leaching of active ingredient (in ppm): 2 ppm
Solution dosage 0.10% o.w.f, exhaust temperature 90° C., process time 60 min
  Leaching of active ingredient (in ppm): 2 ppm
Solution dosage 0.10% o.w.f, exhaust temperature 95° C., process time 60 min
  Leaching of active ingredient (in ppm): 2 ppm
Solution dosage 0.20% o.w.f, exhaust temperature 40° C., process time 60 min
  Leaching of active ingredient (in ppm): 0 ppm
Solution dosage 0.20% o.w.f, exhaust temperature 60° C., process time 60 min
  Leaching of active ingredient (in ppm): 0 ppm
Solution dosage 0.20% o.w.f, exhaust temperature 65° C., process time 60 min
  Leaching of active ingredient (in ppm): 0 ppm
Solution dosage 0.20% o.w.f, exhaust temperature 70° C., process time 60 min
  Leaching of active ingredient (in ppm): 0 ppm
Solution dosage 0.20% o.w.f, exhaust temperature 75° C., process time 60 min
  Leaching of active ingredient (in ppm): 0 ppm
Solution dosage 0.20% o.w.f, exhaust temperature 80° C., process time 60 min
  Leaching of active ingredient (in ppm): 0 ppm
Solution dosage 0.20% o.w.f, exhaust temperature 85° C., process time 60 min
  Leaching of active ingredient (in ppm): 4 ppm
Solution dosage 0.20% o.w.f, exhaust temperature 90° C., process time 60 min
  Leaching of active ingredient (in ppm): 4 ppm
Solution dosage 0.20% o.w.f, exhaust temperature 95° C., process time 60 min
  Leaching of active ingredient (in ppm): 4 ppm
Solution dosage 0.50% o.w.f, exhaust temperature 40° C., process time 60 min
  Leaching of active ingredient (in ppm): 0 ppm
Solution dosage 0.50% o.w.f, exhaust temperature 60° C., process time 60 min
  Leaching of active ingredient (in ppm): 3 ppm
Solution dosage 0.50% o.w.f, exhaust temperature 65° C., process time 60 min
  Leaching of active ingredient (in ppm): 2 ppm
Solution dosage 0.50% o.w.f, exhaust temperature 70° C., process time 60 min
  Leaching of active ingredient (in ppm): 1 ppm
Solution dosage 0.50% o.w.f, exhaust temperature 75° C., process time 60 min
  Leaching of active ingredient (in ppm): 1 ppm
Solution dosage 0.50% o.w.f, exhaust temperature 80° C., process time 60 min
  Leaching of active ingredient (in ppm): 1 ppm
Solution dosage 0.50% o.w.f, exhaust temperature 85° C., process time 60 min
  Leaching of active ingredient (in ppm): 5 ppm
Solution dosage 0.50% o.w.f, exhaust temperature 90° C., process time 60 min
  Leaching of active ingredient (in ppm): 7 ppm
Solution dosage 0.50% o.w.f, exhaust temperature 95° C., process time 60 min
  Leaching of active ingredient (in ppm): 8 ppm
Solution dosage 0.80% o.w.f, exhaust temperature 40° C., process time 60 min
  Leaching of active ingredient (in ppm): 0 ppm
Solution dosage 0.80% o.w.f, exhaust temperature 60° C., process time 60 min
  Leaching of active ingredient (in ppm): 4 ppm
Solution dosage 0.80% o.w.f, exhaust temperature 65° C., process time 60 min
  Leaching of active ingredient (in ppm): 3 ppm
Solution dosage 0.80% o.w.f, exhaust temperature 70° C., process time 60 min
  Leaching of active ingredient (in ppm): 2 ppm
Solution dosage 0.80% o.w.f, exhaust temperature 75° C., process time 60 min
  Leaching of active ingredient (in ppm): 3 ppm
Solution dosage 0.80% o.w.f, exhaust temperature 80° C., process time 60 min
  Leaching of active ingredient (in ppm): 1 ppm
Solution dosage 0.80% o.w.f, exhaust temperature 85° C., process time 60 min
  Leaching of active ingredient (in ppm): 7 ppm
Solution dosage 0.80% o.w.f, exhaust temperature 90° C., process time 60 min
  Leaching of active ingredient (in ppm): 7 ppm
Solution dosage 0.80% o.w.f, exhaust temperature 95° C., process time 60 min
  Leaching of active ingredient (in ppm): 8 ppm
Solution dosage 1.00% o.w.f, exhaust temperature 40° C., process time 60 min
  Leaching of active ingredient (in ppm): 0 ppm
Solution dosage 1.00% o.w.f, exhaust temperature 60° C., process time 60 min
  Leaching of active ingredient (in ppm): 7 ppm
Solution dosage 1.00% o.w.f, exhaust temperature 65° C., process time 60 min
  Leaching of active ingredient (in ppm): 7 ppm
Solution dosage 1.00% o.w.f, exhaust temperature 70° C., process time 60 min
  Leaching of active ingredient (in ppm): 3 ppm
Solution dosage 1.00% o.w.f, exhaust temperature 75° C., process time 60 min
  Leaching of active ingredient (in ppm): 4 ppm
Solution dosage 1.00% o.w.f, exhaust temperature 80° C., process time 60 min
  Leaching of active ingredient (in ppm): 1 ppm
Solution dosage 1.00% o.w.f, exhaust temperature 85° C., process time 60 min
  Leaching of active ingredient (in ppm): 8 ppm
Solution dosage 1.00% o.w.f, exhaust temperature 90° C., process time 60 min
  Leaching of active ingredient (in ppm): 9 ppm
Solution dosage 1.00% o.w.f, exhaust temperature 95° C., process time 60 min
  Leaching of active ingredient (in ppm): 10 ppm
